According to PMC11393453, “Phosphorylation of tau at a single residue inhibits binding to the E3 ubiquitin ligase, CHIP” (Nature Communications, 2024):
Like-named read-outs stand apart in the source and are kept apart here.

What was measured:
HEK293 FlpIn T-Rex cells = test: Tau protein abundance by western blot (tau:tubulin); type: cell-based; details: Fig 3G; for normalized tau:tubulin ratios: normalized to full-length tau
Experimental: (§1) Fig. 3 TauC3 Ser416 phosphorylation regulates CHIP-dependent tau homeostasis. A In vitro ubiquitination of tau proteoforms by CHIP. Samples were collected at the denoted timepoints, quenched in SDS-PAGE loading buffer, and analyzed by western blot. B Quantification of unmodified tau remaining following in vitro ubiquitination of varying tau proteoforms by CHIP. Unmodified tau remaining was analyzed by densitometry, normalized to 0-min time point, and curves were fit using one-phase exponential decay (n = 3 technical replicates). C Cartoon schematic depicting promoter architecture and varying C-terminal sequences for HEK293 FlpIn T-Rex cells expressing doxycycline inducible GFP-tau proteoforms. D Representative fluorescence micrographs for GFP-tau cells. Images show tau species associated with microtubules (green, false color), while nuclei are stained with Hoechst 33342 (blue, false color). Scale bar = 30 µm. Images are representative of three separate acquisitions. E Co-immunoprecipitation assay following IP of varying tau species from cells. Whole cell lysate (input) was used for loading controls, and co-immunoprecipitated CHIP was analyzed by western blot. Experiment was repeated in duplicate. F Representative western blot showing differing abundance of various tau proteoforms in HEK293 FlpIn T-Rex cells. Experiment was repeated in duplicate. G Quantification of tau protein abundance taken from three independent biological experiments. Tau:tubulin ratio was determined by densitometry and normalized to full-length tau. Error bars represent SD. Statistical significance was determined by one-way ANOVA with Tukey’s post hoc analysis. H Quantification of MAPT mRNA from three independent biological experiments. MAPT mRNA was normalized to GAPDH and shown relative to full-length tau. Error bars represent SD. Statistical significance was determined by one-way ANOVA with Tukey’s post hoc analysis.
Construction of the stable dox-inducible HEK 293 eGFP-tau reporter cell lines was performed as described. In brief, parent HEK 293 Flp-In T-REx cells were harvested by trypsinization, resuspended in electroporation buffer containing 5 µg eGFP-tau plasmid DNA and 45 µg pOG44 plasmid DNA. Cells were electroporated using program Q-001 on a Lonza 4D-Nucleofector. Electroporated cells were immediately diluted in 10% FBS-DMEM and cultured for 48 h to recover. Following recovery, cells were selected with 100 µg/mL hygromycin until single colonies arose. Colonies were subsequently picked and screened for dox-inducible expression of eGFP-tau by fluorescence microscopy (Echo Revolve) and western blotting.
Prepared samples were separated on precast 4–20% SDS-PAGE gradient gels (Bio-Rad) for 35 min at 200 V. Proteins were transferred to nitrocellulose membranes using a Trans-Blot Turbo Transfer System (Bio-Rad). Membranes were blocked in Odyssey TBS Blocking Buffer (Licor) for 1 h at room temperature and then incubated in primary antibody in 1X Tris-Buffer saline containing 0.05% Tween-20 (1X TBS-T), plus 5% non-fat dry milk powder, and 0.02% NaN3 overnight at 4 °C with rotation. The following day, membranes were washed 3 times in 1X TBS-T and then incubated in secondary antibody diluted 1:10,000 in Odyssey TBS Antibody Diluent (Licor) for 1 h at room temperature. Following incubation with secondary antibody, membranes were washed 3 times in 1X TBS-T and imaged on an Odyssey Fc Imaging System (Licor). Quantification was performed by densitometry analysis in ImageJ (NIH). Raw images, along with select quantifications, can be found in Fig. S6. […]

CHIP = test: CHIP-tau binding ELISA (tau proteoforms on immobilized CHIP); details: Fig 1D
endogenous CHIP = test: Co-immunoprecipitation of endogenous CHIP with GFP-tau proteoforms; type: cell-based; details: Fig 3E
Experimental: as §1
Cells were washed once in 1X Dulbecco’s Phosphate Buffered Saline (D-PBS) and lysed in ice cold Pierce Immunoprecipitation (IP) lysis buffer (25 mM Tris-HCl pH 7.4, 150 mM NaCl, 1 mM EDTA, 1% NP-40). Lysates were collected by scraping, transferred to 1.5 mL microcentrifuge tubes, and incubated on ice for 15 min. […] Relative protein concentrations were determined by bicinchoninic acid assay (Pierce), and samples were normalized to the lowest protein concentration. […]
For tau immunoprecipitations, an aliquot (30 µL) of Protein A/G PLUS-agarose (Santa Cruz Biotech) per condition was collected and washed twice in ice cold IP lysis buffer. […] Inputs and eluates were subsequently analyzed by SDS-PAGE followed by western blotting. Quantification was performed by densitometry analysis in ImageJ (NIH).

## tau: full length (FL) 0N4R splice isoform of tau, unmodified; recombinant or expressed in cells
HEK293 FlpIn T-Rex cells; replicate 1
  normalized tau:tubulin ratios: 107.457
  raw tau:tubulin ratios: 1.039
HEK293 FlpIn T-Rex cells; replicate 2
  normalized tau:tubulin ratios: 93.4819
  raw tau:tubulin ratios: 0.9043
HEK293 FlpIn T-Rex cells; replicate 3
  normalized tau:tubulin ratios: 99.0612
  raw tau:tubulin ratios: 0.9582
CHIP; replicate 1
  Kd: 5.98 µM
CHIP; replicate 2
  Kd: 6.43 µM
CHIP; replicate 3
  Kd: 6.35 µM
CHIP; read-out: transformed Kd, replicate 1
  Kd: 5.98 µM
CHIP; read-out: transformed Kd, replicate 2
  Kd: 6.43 µM
CHIP; read-out: transformed Kd, replicate 3
  Kd: 6.35 µM
Endogenous CHIP; IntDen quantification, with induction
  CHIP/tau: 1.597
Endogenous CHIP; IntDen quantification, with induction, relative to tauC3
  Relative Binding: 1.645
Endogenous CHIP; second quantification
  CHIP/Tau normalized to tauC3: 0.04136
Endogenous CHIP; second quantification, CHIP over total tau (D-8)
  CHIP/Tau: 0.03219
